Like-named read-outs stand apart in the source and are kept apart here.
Assays:
[1] = tested on: fungal microflora (mushrooms) on alfalfa seeds; assay: Growth of fungal microflora on treated alfalfa seeds; type: cell-based; conditions: 10 mmol
Method: During phytopathological analyses of agricultural crops, the species composition of fungal and bacterial microflora was established. Laboratory studies were carried out on two nutrient media potato-agar (ingredients: potatoes—200 g; agar-agar—20 g; distilled water—1000 mL.) and potato-dextrose agar (ingredients: potatoes—200 g;dextrose—20 g; agar-agar—20 g; distilled water—1000 mL), according to the guidelines.
When evaluating the effectiveness of treatment of wheat, alfalfa, barley, rice, and sorghum seeds as […], their effect on the suppression of seed infection was evaluated.

BDF1 mice = assay: Acute toxicity, single intraperitoneal administration; type: in vivo
Method: To determine LD50, a curve of increasing toxicity was built with increasing dose, based on which the following parameters were additionally determined: MTD, LD16, LD84 and LD100.
In the experiment, clinically healthy animals were used, which were kept in the same conditions with a 12-h light and free access to water and food. Each experimental group included six animals. […] Control animals received 0.9% NaCl solution. Animals were monitored continuously for 4 h on the first day after administration of the test compounds. […] Calculation of toxic doses was performed using probit analysis.

sorghum seeds = assay: Pre-sowing seed treatment, sowing qualities of sorghum seeds; type: in vivo; conditions: for germination energy: control 52.3; for laboratory germination: control 57
Method: (§1) When evaluating the effectiveness of treatment of wheat, alfalfa, barley, rice, and sorghum seeds as fungicidal and bactericidal agents with preparation compounds at concentrations of 10, 20, and 40 mmol, their effect on the suppression of seed infection was evaluated.
(§2) […] The sowing qualities were evaluated (germination energy for 3–4 days, laboratory germination for 7–8 days) according to GOST 12038-84 [60]. Sowing qualities of seeds were determined in wet chambers. According to the sample, 50 seeds were taken in 4-fold repetition.

[2] = tested on: Hek 293 (human embryonic kidneys); assay: Cell viability, MTT test, normal cell line; type: cell-based; conditions: read-out: IC50 (concentration causing 50% inhibition of cell population growth)
Method: In this work, the cytotoxic potential of the water-soluble salts based on benzofuroxan was determined by the effect of compounds on the survival of the cell tumor origin cultures (SH-SY5Y, Hep2, A549, HeLa) using the MTT test. To understand how the synthesized compounds can influence the healthy microenvironment in the body, the effect of substances on the viability of a normal Hek 293 cell culture was additionally evaluated.
Human cell cultures of tumor origin—SH-SY5Y (neuroblastoma), HeLa (cervical tumor), Hep-2 (larynx carcinoma), A549 (adenocarcinomic human alveolar basal epithelial cells)—and normal cell line Hek 293 (human embryonic kidneys), provided by the Laboratory of Tumor Cell Genetics of the Scientific Research Institute of Carcinogenesis, N.N. Blokhin National Medical Research Center of Oncology, as well as the Institute of Cytology of the Russian Academy of Sciences, were grown in a nutrient medium DMEM (PanEco, Moscow, Russia) and MEM (PanEco, Moscow, Russia), containing fetal bovine serum (10% by volume) (ThermoFisher Scientific, Paisley, UK), Glutamax (2 mM) (Gibco, Scotland, UK), and penicillin-streptomycin (1% by volume) (PanEco, Moscow, Russia). The cultivation was carried out at 37 °C in a humidified CO2 atmosphere (5%).
Cell viability was determined by MTT test. Cells were seeded in a 96-well plate in the amount of 1 × 10^4 cells/200µLof complete nutrient medium and cultured at 37 °C in CO2 (5%). After 24 h of incubation, various concentrations of test compounds in the range from 0.1 to 100 μM, were added to the cell cultures, and then the cells were cultured under the same conditions for 24 and 72 h. For each concentration, the experiment was carried out in triplicate.
All compounds were dissolved in DMSO, then diluted with the medium to the required concentration. […] The DMSO was also added to the control wells in a volume of 1%. After the incubation time, MTT (3-(4,5-dimethylthiazol-2-yl)-2,5-diphenyltetrazolium bromide, 5 mg/mL) was added to each well and plates were additionally incubated for 2 h (until the characteristic color appeared).
Using a plate analyzer (Cytation3, BioTech Instruments Inc., Winooski, VT, USA), the optical density was determined at 530 nm. The concentration value causing 50% inhibition of cell population growth (IC50) was determined from dose-dependent curves.

wheat seeds = assay: Pre-sowing seed treatment, sowing qualities of wheat seeds; type: in vivo; conditions: for germination energy: control 82; for laboratory germination: control 85.7
Method: as §1, §2

[3] = single intraperitoneal administration, doses given in mg/kg, probit analysis

**Q.** `CN(C)CCCNc1c([N+](=O)[O-])c(Cl)cc2c1no[n+]2[O-].Cl` [4g, 6-chloro-4-(3-(dimethylammonio)propylamino)-5-nitrobenzo[c][1,2,5]oxadiazole 1-oxide chloride] was tested. Which “effect on fungal microflora” value [1] did it give?
**A.** Its value is “positive effect on the suppression of fungal microflora”.

**Q.** What about the “toxicity class from acute toxicity study” value (BDF1 mice; single i.p.) of the same molecule?
**A.** The value was “highly toxic”.

**Q.** What about the “Body Weight” value (BDF1 mice; single i.p. 5 mg/kg, 0 Day, control 21.55 ± 0.28) of the same molecule?
**A.** Its value is 21.88 ± 0.45 g.

**Q.** And the “Body Weight” value (BDF1 mice; single i.p. 5 mg/kg, 1 Day, control 21.43 ± 0.56)?
**A.** The value was 21.59 ± 0.55 g.

**Q.** What about the “Body Weight” value (BDF1 mice; single i.p. 5 mg/kg, 2 Days, control 21.67 ± 0.77) of the same molecule?
**A.** The value was 21.64 ± 0.71 g.

**Q.** What about the “Body Weight” value (BDF1 mice; single i.p. 5 mg/kg, 3 Days, control 21.99 ± 0.79) of the same molecule?
**A.** The value was 21.72 ± 0.79 g.

**Q.** What about the “Body Weight” value (BDF1 mice; single i.p. 5 mg/kg, 7 Days, control 22.80 ± 0.44) of the same molecule?
**A.** The value was 22.12 ± 0.75 g.

**Q.** And the “Body Weight” value (BDF1 mice; single i.p. 5 mg/kg, 14 Days, control 23.96 ± 0.68)?
**A.** The value was 23.19 ± 1.21 g.

**Q.** What about the “Body Weight” value (BDF1 mice; single i.p. 10 mg/kg, 0 Day, control 21.55 ± 0.28) of the same molecule?
**A.** The value was 21.99 ± 0.21 g.

**Q.** And the “Body Weight” value (BDF1 mice; single i.p. 10 mg/kg, 1 Day, control 21.43 ± 0.56)?
**A.** The value was 21.54 ± 0.41 g.

**Q.** And the “Body Weight” value (BDF1 mice; single i.p. 10 mg/kg, 2 Days, control 21.67 ± 0.77)?
**A.** The value was 21.60 ± 0.52 g.

**Q.** And the “Body Weight” value (BDF1 mice; single i.p. 10 mg/kg, 3 Days, control 21.99 ± 0.79)?
**A.** Its value is 21.86 ± 0.66 g.

**Q.** What about the “Body Weight” value (BDF1 mice; single i.p. 10 mg/kg, 7 Days, control 22.80 ± 0.44) of the same molecule?
**A.** The value was 22.84 ± 1.06 g.

**Q.** And the “Body Weight” value (BDF1 mice; single i.p. 10 mg/kg, 14 Days, control 23.96 ± 0.68)?
**A.** The value was 23.70 ± 1.12 g.

**Q.** And the “Body Weight” value (BDF1 mice; single i.p. 15 mg/kg, 0 Day, control 21.55 ± 0.28)?
**A.** The value was 21.86 ± 0.57 g.

**Q.** What about the “Body Weight” value (BDF1 mice; single i.p. 15 mg/kg, 1 Day, control 21.43 ± 0.56) of the same molecule?
**A.** The value was 21.36 ± 2.51 g.

**Q.** What about the “Body Weight” value (BDF1 mice; single i.p. 15 mg/kg, 2 Days, control 21.67 ± 0.77) of the same molecule?
**A.** Its value is 21.60 ± 2.43 g.

**Q.** And the “Body Weight” value (BDF1 mice; single i.p. 15 mg/kg, 3 Days, control 21.99 ± 0.79)?
**A.** The value was 22.11 ± 3.03 g.

**Q.** What about the “Body Weight” value (BDF1 mice; single i.p. 15 mg/kg, 7 Days, control 22.80 ± 0.44) of the same molecule?
**A.** The value was 22.41 ± 2.74 g.

**Q.** And the “Body Weight” value (BDF1 mice; single i.p. 15 mg/kg, 14 Days, control 23.96 ± 0.68)?
**A.** Its value is 23.15 ± 2.14 g.

**Q.** And the “Body Weight” value (BDF1 mice; single i.p. 20 mg/kg, 0 Day, control 21.55 ± 0.28)?
**A.** Its value is 22.37 ± 0.80 g.

**Q.** What about the “Body Weight” value (BDF1 mice; single i.p. 20 mg/kg, 1 Day, control 21.43 ± 0.56) of the same molecule?
**A.** The value was 21.99 ± 3.09 g.

**Q.** And the “Body Weight” value (BDF1 mice; single i.p. 20 mg/kg, 2 Days, control 21.67 ± 0.77)?
**A.** The value was 21.77 ± 3.79 g.

**Q.** And the “Body Weight” value (BDF1 mice; single i.p. 20 mg/kg, 3 Days, control 21.99 ± 0.79)?
**A.** The value was 21.85 ± 3.18 g.

**Q.** What about the “Body Weight” value (BDF1 mice; single i.p. 20 mg/kg, 7 Days, control 22.80 ± 0.44) of the same molecule?
**A.** The value was 22.81 ± 3.89 g.

**Q.** And the “Body Weight” value (BDF1 mice; single i.p. 20 mg/kg, 14 Days, control 23.96 ± 0.68)?
**A.** The value was 23.41 ± 3.01 g.

**Q.** What about the “Body Weight” value (BDF1 mice; single i.p. 25 mg/kg, 0 Day, control 21.55 ± 0.28) of the same molecule?
**A.** Its value is 21.87 ± 0.74 g.

**Q.** And the “time after administration at which death of animals began” value (BDF1 mice; single i.p., doses of 10–25 mg/kg)?
**A.** The value was 5 to 30 min.

**Q.** And the LD100 (BDF1 mice; single intraperitoneal administration, doses given in mg/kg)?
**A.** The LD100 was 25.

**Q.** What about the LD16 (BDF1 mice; [3]) of the same molecule?
**A.** The LD16 was 9.4.

**Q.** What about the LD84 (BDF1 mice; [3]) of the same molecule?
**A.** Its LD84 is 20.3.

**Q.** And the germination energy (sorghum seeds; 10 mmol)?
**A.** The germination energy was 36.6%.

**Q.** And the laboratory germination (sorghum seeds; 10 mmol)?
**A.** The laboratory germination was 50%.

**Q.** What about the “sowing qualities of seeds compared with control” value (sorghum seeds; 20 mmol) of the same molecule?
**A.** Its value is “higher than in the control”.

**Q.** And the germination energy (sorghum seeds; 20 mmol)?
**A.** The germination energy was 61.9%.

**Q.** What about the laboratory germination (sorghum seeds; 20 mmol) of the same molecule?
**A.** Its laboratory germination is 71.4%.

**Q.** What about the “sowing qualities of seeds compared with control” value (sorghum seeds; 40 mmol) of the same molecule?
**A.** Its value is “higher than in the control”.

**Q.** What about the germination energy (sorghum seeds; 40 mmol) of the same molecule?
**A.** The germination energy was 57.2%.

**Q.** What about the laboratory germination (sorghum seeds; 40 mmol) of the same molecule?
**A.** The laboratory germination was 80.9%.

**Q.** And the IC50 ([2]; HEK293, 24 h)?
**A.** Its IC50 is 21.9 ± 0.39 µM.

**Q.** What about the IC50 ([2]; HEK293, 72 h) of the same molecule?
**A.** The IC50 was 12 ± 1.12 µM.

**Q.** And the germination energy (wheat seeds; 10 mmol)?
**A.** The germination energy was 42.8%.

**Q.** What about the laboratory germination (wheat seeds; 10 mmol) of the same molecule?
**A.** The laboratory germination was 47.6%.

**Q.** What about the germination energy (wheat seeds; 20 mmol) of the same molecule?
**A.** The germination energy was 80.9%.

**Q.** What about the laboratory germination (wheat seeds; 20 mmol) of the same molecule?
**A.** Its laboratory germination is 90.4%.

**Q.** What about the germination energy (wheat seeds; 40 mmol) of the same molecule?
**A.** Its germination energy is 80.9%.

**Q.** What about the laboratory germination (wheat seeds; 40 mmol) of the same molecule?
**A.** Its laboratory germination is 80.9%.

— paper PMC9739695, “Water-Soluble Salts Based on Benzofuroxan Derivatives—Synthesis and Biological Activity” (International Journal of Molecular Sciences, 2022)
